From patent publication US9765075B2, “Substituted bridged urea analogs as sirtuin modulators” (GLAXOSMITHKLINE LLC, priority 2013, dated 2017)

Target: T1, SIRT1 (Homo sapiens, UniProt Q96EB6)
T1 sequence (Q96EB6 1-747): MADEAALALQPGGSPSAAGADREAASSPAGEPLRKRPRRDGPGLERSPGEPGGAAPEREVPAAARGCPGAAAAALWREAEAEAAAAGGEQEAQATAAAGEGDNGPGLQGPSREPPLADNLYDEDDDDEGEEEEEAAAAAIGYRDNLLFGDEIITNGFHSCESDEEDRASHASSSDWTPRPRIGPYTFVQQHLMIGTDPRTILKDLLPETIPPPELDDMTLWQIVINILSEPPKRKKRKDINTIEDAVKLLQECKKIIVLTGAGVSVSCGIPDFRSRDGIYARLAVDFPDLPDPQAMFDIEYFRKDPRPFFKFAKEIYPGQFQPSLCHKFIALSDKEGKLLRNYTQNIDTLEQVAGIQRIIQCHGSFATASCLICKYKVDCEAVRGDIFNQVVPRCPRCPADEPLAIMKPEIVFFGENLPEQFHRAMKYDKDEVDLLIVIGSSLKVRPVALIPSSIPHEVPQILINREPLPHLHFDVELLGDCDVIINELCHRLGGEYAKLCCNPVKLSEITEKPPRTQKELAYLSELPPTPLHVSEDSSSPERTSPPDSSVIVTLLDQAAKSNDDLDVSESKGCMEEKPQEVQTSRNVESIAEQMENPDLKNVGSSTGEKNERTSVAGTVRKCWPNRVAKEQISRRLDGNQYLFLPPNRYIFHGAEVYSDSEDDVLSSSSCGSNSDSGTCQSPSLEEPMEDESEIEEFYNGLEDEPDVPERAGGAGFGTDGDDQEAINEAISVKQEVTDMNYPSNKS
Assay: Trp mass spectrometry assay (SIRT1 activation)
Type: biochemical
Settings: Trp peptide substrate; for Tryp AVG EC1.5 (μM): concentration of test compound that results in 150% activation of SIRT1; for Emax: percent maximum fold activation of SIRT1, read-out: Tryp % Fold Act
Summary of the method: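 Activation is expressed as EC1.5, the concentration raising activity 50% above DMSO control, and as maximum percent of control. Mass-spec readout was OAADPR or deacetylated Trp peptide after a formic-acid-quenched 25-min, 25 °C reaction: 10 nM bacterially expressed His-SIRT1, 0.5 μM acetyl-p53-derived peptide, 120 μM NAD+, pH 7.5 HEPES with […].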

Structure (SMILES) | Tryp AVG EC1.5 (μM) | Emax
N#Cc1cccc(-c2ccc3c(n2)N(C(=O)Nc2cccnn2)[C@H]2CCCN3C2)c1 [Example 381] | B (EC1.5 1-25 μM) | ≥ 150%
CC(C)(C)OC(=O)N1CCCN(c2ccc3c(n2)N(C(=O)Nc2ccncn2)[C@H]2CCCN3C2)CC1 [Example 382] | C (EC1.5>25 μM) | < 150%
Cc1nc(NC(=O)N2c3nc(-c4cccc(N(C)C)c4)ccc3N3CCC[C@H]2C3)sc1C [Example 383] | A (EC1.5<1 μM) | ≥ 150%
O=C(Nc1ccccn1)N1c2nc(-c3ccnc(N4CCC(F)(F)C4)c3)ccc2N2CC[C@H]1C2 [Example 388] | A (EC1.5<1 μM) | ≥ 150%
COc1cc(NC(=O)N2c3nc(-c4ccnc(N5CCC(F)(F)C5)c4)ccc3N3CC[C@H]2C3)ncn1 [Example 390] | B (EC1.5 1-25 μM) | ≥ 150%
O=C(Nc1ccc(F)cn1)N1c2nc(-c3ccnc(N4CCC(C(F)(F)F)C4)c3)ccc2N2CC[C@H]1C2 (some centres unmarked) [Example 391] | A (EC1.5<1 μM) | ≥ 150%
Cn1cc(-c2ccc3c(n2)N(C(=O)Nc2cccnc2)[C@H]2CCN3C2)cn1 [Example 395] | B (EC1.5 1-25 μM) | ≥ 150%
COc1cc(-c2cccc(Cl)c2)nc2c1N1CC[C@@H](C1)N2C(=O)Nc1cnccn1 [Example 396] | A (EC1.5<1 μM) | ≥ 150%
O=C(Nc1cnccn1)N1c2nc(-c3cc(F)cc(F)c3)ccc2N2CC[C@H]1C2 [Example 397] | C (EC1.5>25 μM) | ≥ 150%
COc1ccc(-c2ccc3c(n2)N(C(=O)Nc2cnccn2)[C@H]2CCN3C2)cn1 [Example 399] | B (EC1.5 1-25 μM) | ≥ 150%
CN(C)c1cccc(-c2ccc3c(n2)N(C(=O)Nc2cnccn2)[C@H]2CCCN3C2)c1 [Example 403] | A (EC1.5<1 μM) | ≥ 150%
COc1cc(NC(=O)N2c3nc(-c4cncc(F)c4)ccc3N3CCC[C@H]2C3)ncn1 [Example 404] | A (EC1.5<1 μM) | ≥ 150%
O=C(Nc1ccccn1)N1c2nc(-c3cncc(Cl)c3)ccc2N2CCC[C@H]1C2 [Example 406] | A (EC1.5<1 μM) | ≥ 150%
COc1cc(NC(=O)N2c3nc(-c4cccc(Cl)c4)ccc3N3CCC[C@H]2C3)ncn1 [Example 408] | A (EC1.5<1 μM) | ≥ 150%
O=C(Nc1cccnn1)N1c2nc(-c3cncc(C(F)(F)F)c3)ccc2N2CCC[C@H]1C2 [Example 412] | A (EC1.5<1 μM) | ≥ 150%
Cc1noc(C)c1-c1ccc2c(n1)N(C(=O)Nc1cnccn1)[C@H]1CCN2C1 [Example 413] | C (EC1.5>25 μM) | < 150%
Cn1nccc1-c1ccc2c(n1)N(C(=O)Nc1cnccn1)[C@H]1CCN2C1 [Example 414] | B (EC1.5 1-25 μM) | ≥ 150%
CS(=O)(=O)c1cccc(-c2ccc3c(n2)N(C(=O)Nc2cnccn2)[C@H]2CCN3C2)c1 [Example 415] | A (EC1.5<1 μM) | ≥ 150%
O=C(Nc1cnccn1)N1c2nc(-c3cncc(Cl)c3)ccc2N2CCC[C@H]1C2 [Example 417] | A (EC1.5<1 μM) | ≥ 150%
N#Cc1cc(-c2ccc3c(n2)N(C(=O)Nc2cnccn2)[C@H]2CCN3C2)ccc1F [Example 419] | A (EC1.5<1 μM) | ≥ 150%
O=C(Nc1ccncn1)N1c2nc(N3CCCNCC3)ccc2N2CCC[C@H]1C2 [Example 420] | C (EC1.5>25 μM) | < 150%
O=C(Nc1ccncc1)N1c2nc(-c3ccnc(N4CC[C@H](F)C4)c3)ccc2N2CC[C@H]1C2 [Example 422] | A (EC1.5<1 μM) | ≥ 150%
COc1cc(NC(=O)N2c3nc(-c4ccnc(N5CC[C@@H](F)C5)c4)ccc3N3CC[C@H]2C3)ncn1 [Example 424] | B (EC1.5 1-25 μM) | ≥ 150%
Cc1nc(NC(=O)N2c3nc(-c4cncc(C(F)(F)F)c4)ccc3N3CCC[C@H]2C3)sc1C [Example 427] | A (EC1.5<1 μM) | ≥ 150%
O=C(CCCC[C@@H]1SCC2NC(=O)NC21)NCCCCCC(=O)NCc1ccc(NC(=O)N2c3nc(-c4cccc(C(F)(F)F)c4)ccc3N3CC[C@H]2C3)cc1 (some centres unmarked) [Example 428] | A (EC1.5<1 μM) | ≥ 150%

Other lines, results leading:

Tryp AVG EC1.5 (μM) | Emax | Structure (SMILES)
A (EC1.5<1 μM) | ≥ 150% | CS(=O)(=O)c1cncc(-c2ccc3c(n2)N(C(=O)Nc2cccnn2)[C@H]2CCCN3C2)c1 [Example 380]
B (EC1.5 1-25 μM) | ≥ 150% | CN(C)c1cccc(-c2ccc3c(n2)N(C(=O)Nc2ccc(F)cn2)[C@H]2CCCN3C2)c1 [Example 384]
A (EC1.5<1 μM) | ≥ 150% | COc1cc(NC(=O)N2c3nc(-c4cccc(N(C)C)c4)ccc3N3CCC[C@H]2C3)ncn1 [Example 385]
B (EC1.5 1-25 μM) | ≥ 150% | CN(C)c1cccc(-c2ccc3c(n2)N(C(=O)Nc2ccccn2)[C@H]2CCCN3C2)c1 [Example 386]
A (EC1.5<1 μM) | ≥ 150% | O=C(Nc1ccccn1)N1c2nc(-c3cccc(Cl)c3)ccc2N2CCC[C@H]1C2 [Example 387]
A (EC1.5<1 μM) | ≥ 150% | O=C(Nc1cnccn1)N1c2nc(-c3ccnc(N4CCC(C(F)(F)F)C4)c3)ccc2N2CC[C@H]1C2 (some centres unmarked) [Example 389]
A (EC1.5<1 μM) | ≥ 150% | O=C(Nc1cccnc1)N1c2nc(-c3cncc(C(F)(F)F)c3)ccc2N2CCC[C@H]1C2 [Example 392]
A (EC1.5<1 μM) | ≥ 150% | O=C(Nc1ccncn1)N1c2nc(-c3cncc(C(F)(F)F)c3)ccc2N2CCC[C@H]1C2 [Example 393]
A (EC1.5<1 μM) | ≥ 150% | COc1cc(NC(=O)N2c3nc(-c4cncc(C(F)(F)F)c4)ccc3N3CCC[C@H]2C3)ncn1 [Example 394]
B (EC1.5 1-25 μM) | ≥ 150% | COc1ncc(-c2ccc3c(n2)N(C(=O)Nc2cnccn2)[C@H]2CCN3C2)c(OC)n1 [Example 398]
B (EC1.5 1-25 μM) | ≥ 150% | O=C(Nc1cnccn1)N1c2nc(-c3cncc(F)c3)ccc2N2CC[C@H]1C2 [Example 400]
A (EC1.5<1 μM) | ≥ 150% | O=C(Nc1ccc(F)cn1)N1c2nc(-c3cncc(Cl)c3)ccc2N2CCC[C@H]1C2 [Example 401]
A (EC1.5<1 μM) | ≥ 150% | Cc1nc(NC(=O)N2c3nc(-c4cncc(Cl)c4)ccc3N3CCC[C@H]2C3)sc1C [Example 402]
A (EC1.5<1 μM) | ≥ 150% | COc1cc(NC(=O)N2c3nc(-c4cncc(Cl)c4)ccc3N3CCC[C@H]2C3)ncn1 [Example 405]
A (EC1.5<1 μM) | ≥ 150% | O=C(Nc1cccnc1)N1c2nc(-c3cccc(Cl)c3)ccc2N2CCC[C@H]1C2 [Example 407]
A (EC1.5<1 μM) | ≥ 150% | O=C(Nc1ccncc1)N1c2nc(-c3cccc(Cl)c3)ccc2N2CCC[C@H]1C2 [Example 409]
A (EC1.5<1 μM) | ≥ 150% | O=C(Nc1cncc(F)c1)N1c2nc(-c3ccnc(N4CCC(C(F)(F)F)C4)c3)ccc2N2CC[C@H]1C2 (some centres unmarked) [Example 410]
A (EC1.5<1 μM) | ≥ 150% | O=C(Nc1cncc(F)c1)N1c2nc(-c3cncc(C(F)(F)F)c3)ccc2N2CCC[C@H]1C2 [Example 411]
C (EC1.5>25 μM) | < 150% | O=C(Nc1cnccn1)N1c2nc(-c3cc(F)c(F)c(F)c3)ccc2N2CC[C@H]1C2 [Example 416]
B (EC1.5 1-25 μM) | ≥ 150% | CS(=O)(=O)Nc1cccc(-c2ccc3c(n2)N(C(=O)Nc2cnccn2)[C@H]2CCN3C2)c1 [Example 418]
A (EC1.5<1 μM) | ≥ 150% | O=C(Nc1ccncc1F)N1c2nc(-c3cccc(Cl)c3)ccc2N2CCC[C@H]1C2 [Example 421]
A (EC1.5<1 μM) | ≥ 150% | O=C(Nc1cnccn1)N1c2nc(-c3ccnc(N4CCC(F)(F)C4)c3)ccc2N2CC[C@H]1C2 [Example 423]
A (EC1.5<1 μM) | ≥ 150% | O=C(Nc1ccc(F)cn1)N1c2nc(-c3ccnc(N4CCC(F)(F)C4)c3)ccc2N2CC[C@H]1C2 [Example 425]
B (EC1.5 1-25 μM) | ≥ 150% | N#Cc1ccccc1-c1ccc2c(n1)N(C(=O)Nc1cccnn1)[C@H]1CCCN2C1 [Example 426]
